# In paper PMC7500650, “Transformation of low molecular compounds and soil humic acid by two domain laccase of Streptomyces puniceus in the presence of ferulic and caffeic acids” (PLoS ONE, 2020):
# Tested on: T1, SpSL (two-domain laccase of Streptomyces puniceus)
# T1 construct: TAT signal peptide (1-34) removed: forward primer GGATCC-GAGAAGCCGCCCCG starts the insert at EKPP; pQE-30 (His-tag, cleavage not mentioned), E. coli M15 (pREP4), HisTrap; precursor 344 residues; 110 kDa native homotrimer
# Assay: oxidation kinetics, nonlinear regression
# Format: biochemical
# Details: apparent constant, co-substrate O2
# Source text: oxidation kinetics, nonlinear regression on SpSL (two-domain laccase of Streptomyces puniceus)
# [1] = pH of kinetics not printed (alkaline optimum)
smiles,measurement,setting,value
CCn1c(=NN=c2sc3cc(S(=O)(=O)O)ccc3n2CC)sc2cc(S(=O)(=O)O)ccc21 [ABTS],Km,"pH of kinetics not printed (routine ABTS assay: 20 mM Na-acetate pH 5.0, 420 nm)",370 ± 21 µM
"COc1cccc(OC)c1O [2,6-Dimethoxyphenol]",Km,[1],1150 ± 100 µM
COc1ccccc1O [2-Methoxyphenol],Km,[1],5700 ± 250 µM
